Data: patent US12161723B2, “Water-based cannabinoid and opioid compositions” (DAY THREE LABS MAN[…]., priority 2014, dated 2024)

Columns and labels:
[1] = target: T1, bovine serum albumin (BSA) (Bos taurus, UniProt P02769); experiment: Cannabis smoke bubbled through aqueous BSA solution, cannabinoids determined by HPLC (Example 1a); type: binding; settings: BSA in Hartmann's solution; FIG. 2A
T1 construct: purchased Millipore, USA
Experimental: Protein-bound cannabinoid was formed according to the following method. An aqueous albumin solution was prepared by adding 20 (mg)) of bovine serum albumin (BSA, from Millipore, USA) to 10 milliliters (ml) ml Hartmann's solution (B. Braun Melsungen AG, Germany). BSA was completely dissolved using a shaker (Heidolph POLYMAX 1040) at 50 revolutions per minute.
A cannabis-filled cigarette was formed using a cigarette paper containing 0.8 gr ground cannabis (provided by “Seach” Israel), from flowers and budding leaves. A Pasteur pipette was cut longitudinally at its wide end, and the cigarette was lodged in to the cut end. The narrow end of the pipette was attached to a syringe. The cigarette was lit in a fume hood, and cigarette smoke was collected in the syringe by pulling the syringe plunger. The smoke was then slowly released into the BSA solution by depressing the plunger. Approximately 350 ml of smoke-containing air was gently bubbled through the BSA solution.
As a control, a solution of 10 ml of Hartmann's solution was prepared without the addition of BSA and a similar procedure of cannabis smoke formation and bubbling was performed.
Samples having a volume of 3 ml of the BSA solution and the control solution were each inserted in to HPLC glass vials and the open vials were inserted into a vacuum oven for 24 hours at 37° Celsius.
The solid phase after the evaporation was crushed in to a fine powder using mortar and pestle. The powder was extracted using Methanol chloroform 9:1 extract solution, sonicated for 30 minutes, and was then filtered and added in to an HPLC testing tube.
HPLC was performed using an HP1050 AGILENT, DAD detector, XBridge C18 3.5 μm 4.6×150 mm column, and according to the following parameters: […]

BSA [2] = target: T2, BSA (Bos taurus, UniProt P02769); experiment: THC standard adsorption to BSA at varying ethanol content (Example 1c); type: binding, bovine; settings: 10 micrograms BSA, 30 micrograms THC, 1.5-15 microliters ethanol; FIG. 5
T2 sequence (P02769 25-607): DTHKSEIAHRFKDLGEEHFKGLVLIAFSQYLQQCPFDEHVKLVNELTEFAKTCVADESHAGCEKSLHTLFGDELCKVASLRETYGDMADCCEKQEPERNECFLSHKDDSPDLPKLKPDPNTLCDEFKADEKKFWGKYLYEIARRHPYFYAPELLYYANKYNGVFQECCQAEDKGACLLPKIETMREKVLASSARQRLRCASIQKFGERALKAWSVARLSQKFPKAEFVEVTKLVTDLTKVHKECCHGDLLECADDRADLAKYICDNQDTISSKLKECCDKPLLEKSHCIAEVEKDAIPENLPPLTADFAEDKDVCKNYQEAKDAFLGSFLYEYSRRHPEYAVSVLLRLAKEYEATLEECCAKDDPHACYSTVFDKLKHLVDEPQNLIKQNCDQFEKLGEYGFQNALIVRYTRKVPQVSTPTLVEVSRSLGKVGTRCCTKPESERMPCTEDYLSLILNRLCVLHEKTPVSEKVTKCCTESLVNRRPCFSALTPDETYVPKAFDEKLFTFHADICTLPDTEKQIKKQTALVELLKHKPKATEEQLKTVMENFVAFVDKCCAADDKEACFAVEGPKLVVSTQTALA
Experimental: 30 micrograms of THC standard was dissolved in various amounts of ethanol (absolute) in various amounts, between 1.5 microliters and 15 microliters. The THC solution was then combined with 0.5 ml of a 20 microgram/ml solution of BSA. […] The results can be seen in FIG. 5.

BSA [3] = target: T2, BSA; experiment: Cannabis smoke/vapor passed through BSA/water/ethanol solution, cannabinoid profile (Example 1d); type: binding, bovine; settings: 33% ethanol, 48 hours incubation, washed
Experimental: (§1) To show which cannabinoid compounds are solubilized in processes using BSA versus organic solvents, cannabis from two different batches was smoked and or vaporized. Vapor was formed using a “volcano” vaporizer at a temperature of 210° C. The smoke/vapor was passed through either a BSA/water/ethanol solution described in example 1b, comprising 33% by volume ethanol or through a pure ethanol (99% ethanol) solution. Solutions were stirred using a magnetic stirrer and were incubated for 48 hours, during which time, most of the ethanol evaporated. One of the batches of cannabis was high in THC, and the other batch of cannabis was high in both THC and CBD.
The BSA/water/ethanol solution was washed after smoke or vapor was combined with it, and the amount of cannabinoids present was analyzed. The results of the comparison of relative concentration of cannabinoids (relative to total cannabinoid content) as expressed in percent (weight/weight), for a strain of cannabis high in THC are shown in the table below.

[4] = Cannabis smoke/vapor passed through pure ethanol, cannabinoid profile (Example 1d); type: physicochemical; settings: for relative concentration of cannabinoids (relative to total cannabinoid content), Vapor passed through ethanol: vapor at 210° C.
Experimental: as §1

BSA [5] = target: T2, BSA; experiment: Adsorption capacity of BSA using THC standard (Example 1e); type: binding, bovine; settings: albumin 20 μg/ml in water and ethanol; THC 20-60 μg/ml; incubation two hours or 12 hours; FIG. 4
Experimental: An albumin solution in water (20 μg/ml) and ethanol was prepared. THC standard was added at concentrations of between 20 μg/ml and 60 μg/ml. The amount of THC adsorbed to the BSA protein was determined for each concentration after incubation for either two hours or 12 hours while gently vortexing.

bovine γ-globulin = experiment: Cannabis vapor streamed through protein solution, cannabinoids adsorbed (Example 1f); type: binding; settings: vapor of cannabis high in CBD; 1 mg/ml protein, ethanol:water 1:2, 30° C., 24 hours
Experimental: (§2) The protein solutions were formed using ethanol and water in a 1:2 ratio. The solutions were incubated at 30° C. for 24 hours.

ovalbumin (hen) = target: T3, ovalbumin (hen) (Gallus gallus, UniProt P01012); experiment: as above; type: binding; settings: vapor of cannabis high in CBD; 1 mg/ml protein, ethanol:water 1:2, 30° C., 24 hours
T3 sequence (P01012 1-386): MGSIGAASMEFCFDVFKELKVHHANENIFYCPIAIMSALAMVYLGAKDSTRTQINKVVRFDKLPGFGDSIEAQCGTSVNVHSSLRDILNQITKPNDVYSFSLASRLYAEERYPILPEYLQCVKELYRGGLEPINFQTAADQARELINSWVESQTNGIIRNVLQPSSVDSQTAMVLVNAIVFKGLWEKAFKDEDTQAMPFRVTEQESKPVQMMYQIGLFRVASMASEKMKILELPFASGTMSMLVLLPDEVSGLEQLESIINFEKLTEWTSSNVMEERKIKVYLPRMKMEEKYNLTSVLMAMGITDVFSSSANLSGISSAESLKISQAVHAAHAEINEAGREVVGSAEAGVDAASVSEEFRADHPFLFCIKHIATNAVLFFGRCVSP
Experimental: as §2

[6] = target: T4, rice recombinant human serum albumin (HSA) (Homo sapiens, UniProt P02768); experiment: as above; type: binding; settings: vapor of cannabis high in CBD; 1 mg/ml protein, ethanol:water 1:2, 30° C., 24 hours
T4 construct: host or cells: rice (recombinant expression host)
T4 sequence (P02768 25-609): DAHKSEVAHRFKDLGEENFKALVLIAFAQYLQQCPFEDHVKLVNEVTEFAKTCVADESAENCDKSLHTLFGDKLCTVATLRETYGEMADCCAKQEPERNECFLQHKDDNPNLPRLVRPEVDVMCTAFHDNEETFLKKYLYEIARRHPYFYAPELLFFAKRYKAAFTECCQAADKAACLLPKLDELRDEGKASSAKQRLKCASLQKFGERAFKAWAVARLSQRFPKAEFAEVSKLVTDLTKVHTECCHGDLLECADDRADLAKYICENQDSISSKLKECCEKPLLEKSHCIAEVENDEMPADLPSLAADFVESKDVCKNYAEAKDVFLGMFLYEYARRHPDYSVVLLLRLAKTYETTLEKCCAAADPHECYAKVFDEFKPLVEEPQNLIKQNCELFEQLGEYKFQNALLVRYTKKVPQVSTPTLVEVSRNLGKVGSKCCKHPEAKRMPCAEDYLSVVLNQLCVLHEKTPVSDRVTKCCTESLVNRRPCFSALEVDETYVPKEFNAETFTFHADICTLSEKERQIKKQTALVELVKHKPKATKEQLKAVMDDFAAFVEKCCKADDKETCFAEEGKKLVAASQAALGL
Experimental: as §2

[7] = Cannabinoid content of cannabis extract (Example 2a); type: physicochemical; settings: methanol/chloroform 9:1 cannabis extract
Experimental: (§3) Cannabis extract was prepared as follows: In short, cannabis plant matter is dried, ground and homogenized to form ground cannabis. The ground cannabis is extracted with methanol/chloroform (volume/volume ratio of 9:1). Sonication and filtration is then performed. Identity of cannabinoids is determined by HPLC by evaporation, dissolution in an appropriate solvent.
(§4) Drying of the cannabis plant matter occurs under high vacuum at about 37±2° C. for about 24 hours and then ground to form a fine powder. 200 mg of ground powder is combined with 10 ml of methanol/chloroform, and sonicated in an ice bath for 30 minutes at maximum power. The supernatant is then filtered through a 0.2 micron filter.
(§5) A sample of the cannabis extract was analyzed for content of cannabinoids. The cannabis extract was then combined with albumin solution having 20% ethanol at 10 mg/ml (BSA) and incubated for 2 hours at room temperature.

BSA [8] = target: T2, BSA; experiment: Cannabis extract combined with albumin solution, cannabinoids adsorbed to BSA (Example 2a); type: binding, bovine; settings: albumin solution 10 mg/ml (BSA) with 20% ethanol, 2 hours at room temperature
Experimental: as §3, §4, §5

albumin (BSA) = albumin (BSA) (Bos taurus, UniProt P02769); experiment: Ethanolic cannabinoid solution mixed with aqueous albumin, protein-bound cannabinoid quantified (Example 2b); type: binding, bovine; set-up: protein-bound cannabinoid quantified, Vapor: unit not given beside the values; settings: 100 microliters ethanolic solution + 500 microliters 5 mg/ml BSA, 30° C., 12 hours, non-adsorbed cannabinoids separated
Sequence of albumin (BSA) (P02769 25-607): as the sequence (P02769 25-607) above
Experimental: 100 microliters of ethanolic cannabinoid solution from cannabis vapor and cannabis smoke were each mixed with 500 microliters of aqueous albumin solution that had been prepared at a concentration of 5 mg albumin (BSA)/ml. The aqueous albumin solution combined with the ethanolic cannabinoid solution was incubated at 30° C. for 12 hours in open tubes. After 12 hours, the tubes were mixed and centrifuged, and non-adsorbed cannabinoids were separated from the solution. Concentrated protein-bound cannabinoid was dried and quantified as described below.

[9] = 3 g high THC strain; 200 ml ethanol concentrated to about 3 ml
[10] = strain of cannabis high in CBD and THC

T1 sequence (P02769 25-607): as above

## CCCCCc1cc(O)c2c(c1)OC(C)(C)[C@@H]1CCC(C)=C[C@@H]21 [THC, tetrahydrocannabinol, reference compound]
[1]
  active cannabinoids found by HPLC in BSA aqueous solution after cannabis smoke was introduced: dissolved in the solution
BSA [2]
  adsorption of THC to protein as ethanol concentration increases: adsorption of THC to protein increases
BSA [3]; [10]
  relative concentration of cannabinoids (relative to total cannabinoid content), Smoke passed through BSA/water/ethanol: 32.8 percent (weight/weight)
  relative concentration of cannabinoids (relative to total cannabinoid content), Vapor passed through BSA/water/ethanol: 37.7 percent (weight/weight)
BSA [3]; strain of cannabis high in THC
  relative concentration of cannabinoids (relative to total cannabinoid content), Smoke passed through BSA/water/ethanol: 69.7 percent (weight/weight)
[4]; [10]
  relative concentration of cannabinoids (relative to total cannabinoid content), Smoke passed through ethanol: 40.7 percent (weight/weight)
  relative concentration of cannabinoids (relative to total cannabinoid content), Vapor passed through ethanol: 40.9 percent (weight/weight)
[4]; strain of cannabis high in THC
  relative concentration of cannabinoids (relative to total cannabinoid content), Smoke passed through ethanol: 86.7 percent (weight/weight)
  relative concentration of cannabinoids (relative to total cannabinoid content), Vapor passed through ethanol: 94.6 percent (weight/weight)
BSA [5]
  adsorbed THC per mg of albumin: above 50 μg adsorbed THC per mg of albumin
Bovine γ-globulin
  percentage of each cannabinoid relative to total cannabinoids adsorbed to protein, Bovine γ-globulin: 0 percentage
Ovalbumin (hen)
  percentage of each cannabinoid relative to total cannabinoids adsorbed to protein, Ovalbumin: 41.7 percentage
[6]
  percentage of each cannabinoid relative to total cannabinoids adsorbed to protein, Rice recombinant HSA: 21 percentage
[7]
  percentage of each cannabinoid relative to total cannabinoids, Extract: 68 percentage
BSA [8]
  percentage of each cannabinoid relative to total cannabinoids adsorbed to protein, Adsorbed to BSA after extract combined with BSA solution: 63 percentage
Albumin (BSA)
  protein-bound cannabinoid quantified, Smoke: 121.38
  protein-bound cannabinoid quantified, Vapor: 131.955
[9]
  amount of cannabinoids dissolved in ethanol, Smoke: 6195.223 micrograms/ml
  amount of cannabinoids dissolved in ethanol, Vapor: 3777.7796 micrograms/ml
